Data: PMC7374170, “TRIB3-EGFR interaction promotes lung cancer progression and defines a therapeutic target” (Nature Communications, 2020)
Where two headings read alike, the source gives them in different places. Values belong to the molecule of their own block, whether it stands above or below them. Bridge positions count the residues as written; N and C are the ends. Square brackets hold non-standard residues; d marks the D form. Peptide text beside a SMILES is read from it. S5 = C=CCCC[C@](C)(N)C(=O)O

Experiments:
[1] = tested on: cell surface EGFR in NCI-H157 cells; experiment: Cell surface EGFR by flow cytometry, NCI-H157; type: cell-based, human; settings: TRIB3-overexpressing NCI-H157 cells, 10 µM monensin 4 hr, EGF 100 ng ml-1 1 hr
Procedure: Supplementary Figure 2 Overexpression of TRIB3 promotes EGFR recycling. […]
a, NCI-H157 cells and NCI-H157 cells stably expressed TRIB3 were non-stimulated or EGF […]
(100 ng ml-1) stimulated for indicated times. Co-localization of EGFR with EEA1 was analyzed […]
with confocal microscopy, quantification of EGFR and EEA1 colocalization was shown as […]
Pearson’s coefﬁcient. Data are means ± SEM of 3 independent assays. b, Gating strategy to […]
determine surface EGFR level presented in figure 2d and supplementary figure 2c. c, […]
Quantitative analyses of cell surface EGFR in NCI-H157 cells stably expressed Empty-Vector […]
or TRIB3-HA expression plasmid. Cells were pre-incubated with DM SO or 10 µM monensin […]
cell surface was detected by flow cytometry analysis. […]
detected in NCI-H157 cells with or without TRIB3-HA stably ectopic expression (d); or in NCI- […]
localization of EGFR with Rab11 and LAMP1. Quantification of EGFR/Rab11 or […]
3 independent assays. Statistical significance between two groups was determined with two- […]
tailed Student’s t-test. Statistical significance among groups was determined by one-way ANOVA test. […]
Live cells were stained with Alexa-Fluro 488 anti-EGFR antibody (Santa Cruz, R-1, #sc-101 AF488, 1:100). Analysis was performed using a PARTEC EPICSXL (Germany) and data was analyzed using FCS Express 6. […]

[2] = In vivo bio-distribution and clearance of FAM-labeled peptide (IVIS); settings: FAM-labeled peptides, bolus tail vein injection 2 mg kg-1, male athymic BALB/c nude mice
Procedure: detected by Exactive™ Plus Orbitrap (Thermo Fisher Scientific, USA).
In vitro plasma stability assay
The rat blood was collected by
The plasma solutions were incubated […]
ionization mass spectrometric detection. The values represent the mean of 3 independent assays.
In vivo bio-distribution and clearance of peptide
OH, USA). Data was analyzed by the built-in software.

[3] = design: species or system BALB/c nude mice; settings: mouse, in vivo
Procedure: twice a week for 4 weeks. […] Data are means ± SEM of 3 independent assays. […] CALM: Calmodulin. […] Lung cancer cells were isolated from PDX mice by using the […] One week after tumor inoculation, mice were […] or pemetrexed (100 mg kg-1, once a day). Tumor growth was monitored twice weekly with a caliper. Tumor volume (T ) was calculated using the formula: T =0.5×L×W 2. Mice survival V V […] signs of distress. […] Generation of Stable Cell Lines To establish cell populations stably expressing TRIB3-shRNA1/2, or the Control-shRNA, cells were transfected with TRIB3-shRNA1/2 or the Control-shRNA expressing plasmids. Stable transfectants were selected in medium containing hygromycin. […] (Supplementary Fig. 9a).

[4] = tested on: colonic mucosal epithelial cells (NCM460)
[5] = In vitro plasma stability assay; settings: normalised to 100 at 0 min
[6] = tested on: bronchial epithelial cells (BEAS-2B)
A549 cells = experiment: CCK-8 cell viability / cytotoxicity, A549; type: cell-based; settings: Homo sapiens, read-out: IC50 of pemetrexed, A549, before sensitization
NCI-H1975 cells = experiment: CCK-8 cell viability / cytotoxicity, NCI-H1975; type: cell-based; settings: Homo sapiens

SMILES: CC[C@@]1([C@@H]2O[C@@H]([C@H]3O[C@@](O)(CO)[C@H](C)C[C@@H]3C)C[C@@H]2C)CC[C@H]([C@]2(C)CC[C@]3(C[C@H](O)[C@@H](C)[C@@H]([C@@H](C)[C@@H](OC)[C@H](C)C(=O)O)O3)O2)O1 [monensin]
EGFR membrane level [1]: reduced the EGFR membrane level

half-clearance rate in vivo compared with Pep2-JGZ [2]: slower half-clearance rate
EGFR and HER2 expression in the heart [3]: did not cause reductions in
peptide remaining ([5]; 450 min, replicate 1): 113.749
peptide remaining ([5]; 450 min, replicate 2): 125.15
peptide remaining ([5]; 450 min, replicate 3): 119.761
peptide remaining ([5]; 540 min, replicate 1): 115.041
peptide remaining ([5]; 540 min, replicate 2): 121.067
peptide remaining ([5]; 540 min, replicate 3): 118.562
peptide remaining ([5]; 630 min, replicate 1): 106.23
peptide remaining ([5]; 630 min, replicate 2): 116.53
peptide remaining ([5]; 630 min, replicate 3): 116.365
peptide remaining ([5]; 720 min, replicate 1): 109.883
peptide remaining ([5]; 720 min, replicate 2): 113.113
peptide remaining ([5]; 720 min, replicate 3): 112.463
SMILES: CC[C@H](C)[C@@H]1NC(=O)[C@@](C)(NC(=O)[C@H](CC(C)C)NC(=O)[C@H](CC(C)C)NC(=O)[C@H](C)NC(=O)[C@H](CCC(N)=O)NC(=O)[C@@H](N)CC(N)=O)CCCC=CCCC[C@@](C)(C(=O)N[C@H](C(=O)N[C@@H](CCC(=O)O)C(=O)N[C@@H](Cc2ccccc2)C(=O)N[C@@H](CCCCN)C(=O)N[C@@H](CCCCN)C(=O)O)[C@@H](C)O)NC(=O)[C@H](CCCNC(=N)N)NC(=O)[C@H](CC(C)C)NC1=O [SAH-JGZ4] (H-NQALL[S5]ILR[S5]TEFKK-OH; staple 6-10)
cell viability, HaCaT (keratinocytes (HaCaT)): had no effect on the cell viability
cell viability, NCM460 [4]: had no effect on the cell viability
cell viability, BEAS-2B [6]: had no effect on the cell viability

SMILES: Nc1nc2[nH]cc(CCc3ccc(C(=O)N[C@@H](CCC(=O)O)C(=O)O)cc3)c2c(=O)[nH]1 [pemetrexed]
IC50 (A549 cells): 245 nM
IC50 (NCI-H1975 cells; NCI-H1975, read-out: IC50 of pemetrexed, H1975, sensitized by SAH-JGZ4): 793 nM
IC50 (NCI-H1975 cells; NCI-H1975, read-out: IC50 of pemetrexed, H1975, before sensitization): 3170 nM
